# Measurements published in patent publication US20150216992A1, “EXTENDED RELEASE COMPOSITIONS OF AN AMINOALKYL NITRATE” (CARDIOLYNX AG, priority 2012, published 2015).
# Experiments:
# L-NAME treated SHR rats = assay: Rat model for pharmacological activity using blood pressure as a marker; assay type: in vivo; conditions: AEN tosylate 0.5 mg/kg/h infused, valsartan 5 mg/kg single daily dose; for effect on blood pressure: after 1 and 2 weeks
# Experimental: FIG. 5: Pharmacological activity of AEN tosylate, valsartan and AEN tosylate/valsartan combination on blood pressure in L-NAME treated SHR rats.
# Column 1: AEN tosylate (0.5 mg/kg/h), column 2: valsartan (single dose 5 mg/kg), column 3: AEN tosylate (0.5 mg/kg/h) plus valsartan (single daily dose 5 mg/kg).
# Hatched bars: blood pressure lowering versus control after 1 week, black solid bars after 2 weeks. Vertical axis: reduction in blood pressure in mm Hg
# SHR rats were treated with L-NAME to increase blood pressure. Following treatment with L-NAME rats were treated continuously for two weeks with either AEN tosylate (1) with a continuously infused dose (using an osmotic pump) of 0.5 mg/kg/h (column 1 in FIG. 5), valsartan at 5 mg/kg, single daily dose (column 2 in FIG. 5) or AEN tosylate plus valsartan (combined doses, group 3 in FIG. 5). Effects on blood pressure were measured after 1 week and after 2 weeks of treatment.
# [1] = in vivo; cited from earlier work
# [2] = in vivo; cited from earlier work; remark: listed apart in the source
SMILES,effect on blood pressure (L-NAME treated SHR rats),NO-tolerance induction (L-NAME treated SHR rats; two weeks continuous treatment),half-live [1],development of nitrate tolerance [2]
"Cc1ccc(S(=O)(=O)O)cc1.NCCO[N+](=O)[O-] [AEN tosylate, 2-aminoethylnitrate (aen) tosylate]",continued pharmacological activity,without showing signs of NO-tolerance induction,,
CCCCC(=O)N(Cc1ccc(-c2ccccc2-c2nnn[nH]2)cc1)[C@H](C(=O)O)C(C)C [valsartan],lowered blood pressure,,,
"NCCO[N+](=O)[O-] [AEN, 2-aminoethyl nitrate]",,,approx. 2 hours,no development of nitrate tolerance
